# Source: BindingDB's records for PubMed 36846363 (Al-Ahliyya Amman University, 2023)
# Assay: Antagonist activity at P2Y12 receptor in human blood platelets assessed as inhibition of ADP-induced platelet aggregation compound preincubated with blood for 5 mins prior to ADP addition by electrode aggregometry assay
row,IC50,Compound
1,6.49 µM,O=C(CCC(=O)Nc1ccc2[nH]c3ccccc3c(=O)c2c1)Nc1ccc2[nH]c3ccccc3c(=O)c2c1
2,35 µM,O=C(CCCCCCCC(=O)Nc1ccc2[nH]c3ccccc3c(=O)c2c1)Nc1ccc2[nH]c3ccccc3c(=O)c2c1
3,4.2 µM,CCOC(=O)c1cc(NC(=O)c2cc(NC(=O)c3cc(NC(=O)c4c(-c5ccccc5)noc4C)cn3C)cn2C)cn1C
